Several values for one entry are separate records, joined by “and”; a condition that tells them apart may be missing. Identical values can stand only once.
Legend:
[1] = system: simian immunodeficiency virus (SIV); conditions: ref xxii; cited from earlier work
[2] = system: herpes-simplex virus 2; conditions: ref xxi; cited from earlier work
[3] = system: bacteriophage φ6; conditions: ref xxi; cited from earlier work
[4] = Critical micelle concentration by tensiometer measurements in water; type: physicochemical; conditions: for CMC: in water, triplicate single values

In the case of 1-O-lauryl-glycerol [GML], the “prevention of SIV in rhesus macaque model” value [1] is listed as “prevent simian immunodeficiency virus (SIV)”, the “activity against herpes-simplex virus 2” value [2] is listed as “low micromolar activity” and the “activity against bacteriophage φ6” value [3] is listed as “low micromolar activity”.
Work on `CCCCCCCCCCCCCCCC(=O)OC[C@H]1O[C@H](O[C@@H]2O[C@H](CO)[C@H](O)[C@H](O)[C@H]2O)[C@@H](O)[C@@H](O)[C@@H]1O` [Compound 3, β-D-Galactopyranosyl-(1→1)-6-O-palmitate-α-D-mannopyranoside] yielded a CMC [4] of 10.5 µM.
`CCCCCCCCCCCCCCCC(=O)O[C@@H]1[C@H](O)[C@@H](O[C@@H]2O[C@H](CO)[C@H](O)[C@H](O)[C@H]2O)O[C@H](CO)[C@H]1O` [Compound 4, β-D-Galactopyranosyl-(1→1)-3-O-palmitate-α-D-mannopyranoside] showed a CMC [4] of 12.5 µM.
For `CCCCCCCCCCCCCCCC(=O)OC[C@H]1O[C@H](O[C@@H]2O[C@H](CO)[C@@H](O)[C@H](O)[C@H]2O)[C@@H](O)[C@@H](O)[C@@H]1O` [Compound 6, β-D-Glucopyranosyl-(1→1)-6-O-palmitate-α-D-mannopyranoside], the CMC [4] was 10.5 µM and 12 µM.
In the case of `CCCCCCCCCCCCCCCC(=O)OC[C@H]1O[C@H](OC)[C@@H](O)[C@@H](O)[C@@H]1O` [Compound 7, Methyl-6-O-palmitate-α-D-mannopyranoside], the CMC [4] is reported as 13.5 µM and 13.7 µM.
With `CCCCCCCCCCCCCCCC(=O)OC[C@H]1O[C@H](OC)[C@@H](O)[C@@H](O)[C@@H]1OC(=O)CCCCCCCCCCCCCCC` [Compound 8, Methyl-4,6-di-O-palmitate-α-D-mannopyranoside] the “concentration above which precipitates rather than micelles form in water” value ([4]; interpretation of surface tension data) was > 500 nM.

Reference: article PMC3380439 (Bioorganic & medicinal chemistry, 2011)
